Key:
Format in all cases: in vivo
[1] = test system: Galium (catchweed bedstraw, Galium aparine); test: Test A postemergence; conditions: Galium, post-emergence, 240 h, 125 g ai/ha, postemergence; visual injury after approximately 10 d; 0 to 100 scale (0 no effect, 100 complete control); read-out: Plant response rating, Galium
Outline: (§1)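 Each rating is a visual injury score from 0 to 100 given about 10 d after treatment, judged against untreated controls kept alongside in the greenhouse. In loam soil–sand blend, seeds got a preemergence directed soil spray, while postemergence plants were 2 to 10 cm tall at spraying.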

Kochia (Kochia scoparia) = test: Test A postemergence; conditions: Bassia scoparia, post-emergence, 240 h, 125 g ai/ha, postemergence; visual injury after approximately 10 d; 0 to 100 scale (0 no effect, 100 complete control); read-out: Plant response rating, Kochia
Outline: as §1

[2] = test system: barnyardgrass (Echinochloa crus-galli); test: Test A postemergence; conditions: Echinochloa crus-galli, post-emergence, 240 h, 125 g ai/ha, postemergence; visual injury after approximately 10 d; 0 to 100 scale (0 no effect, 100 complete control); read-out: Plant response rating, Barnyardgrass
Outline: as §1

[3] = test system: blackgrass (Alopecurus myosuroides); test: Test A postemergence; conditions: Alopecurus myosuroides, post-emergence, 240 h, 125 g ai/ha, postemergence; visual injury after approximately 10 d; 0 to 100 scale (0 no effect, 100 complete control); read-out: Plant response rating, Blackgrass
Outline: as §1

corn (Zea mays) = test: Test A postemergence; conditions: Zea mays, post-emergence, 240 h, 125 g ai/ha, postemergence; visual injury after approximately 10 d; 0 to 100 scale (0 no effect, 100 complete control)
Outline: as §1

[4] = test system: giant foxtail (Setaria faberii); test: Test A postemergence; conditions: Setaria faberi, post-emergence, 240 h, 125 g ai/ha, postemergence; visual injury after approximately 10 d; 0 to 100 scale (0 no effect, 100 complete control); read-out: Plant response rating, Foxtail, Giant
Outline: as §1

[5] = test system: pigweed (Amaranthus retroflexus); test: Test A postemergence; conditions: Amaranthus retroflexus, post-emergence, 240 h, 125 g ai/ha, postemergence; visual injury after approximately 10 d; 0 to 100 scale (0 no effect, 100 complete control); read-out: Plant response rating, Pigweed
Outline: as §1

[6] = test system: ragweed (common ragweed, Ambrosia elatior); test: Test A postemergence; conditions: Ambrosia artemisiifolia, post-emergence, 240 h, 125 g ai/ha, postemergence; visual injury after approximately 10 d; 0 to 100 scale (0 no effect, 100 complete control); read-out: Plant response rating, Ragweed
Outline: as §1

[7] = test system: ryegrass, Italian (Italian ryegrass, Lolium multiflorum); test: Test A postemergence; conditions: Lolium multiflorum, post-emergence, 240 h, 125 g ai/ha, postemergence; visual injury after approximately 10 d; 0 to 100 scale (0 no effect, 100 complete control); read-out: Plant response rating, Ryegrass, Italian
Outline: as §1

[8] = test system: wheat (Triticum aestivum); test: Test A postemergence; conditions: Triticum aestivum, post-emergence, 240 h, 125 g ai/ha, postemergence; visual injury after approximately 10 d; 0 to 100 scale (0 no effect, 100 complete control); read-out: Plant response rating, Wheat
Outline: as §1

[9] = test system: barnyardgrass (Echinochloa crus-galli); test: Test B flooded paddy test; conditions: Echinochloa crus-galli, Flood, 250 g ai/ha; scale of 0 to 100 where 0 is no effect and 100 is complete control; read-out: Barnyardgrass plant response rating
Outline: (§2)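 Rating scale 0–100 (visual, vs untreated controls) after a 13–15 d greenhouse period; application to the flood layer, 3 cm above soil and maintained; plants at 2-leaf stage when treated.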

[10] = test system: ducksalad (Heteranthera limosa); test: Test B flooded paddy test; conditions: Heteranthera limosa, Flood, 250 g ai/ha; scale of 0 to 100 where 0 is no effect and 100 is complete control; read-out: Ducksalad plant response rating
Outline: as §2

rice (Oryra sativa) = test: Test B flooded paddy test; conditions: Oryza sativa, Flood, 250 g ai/ha; scale of 0 to 100 where 0 is no effect and 100 is complete control; read-out: Rice plant response rating
Outline: as §2

[11] = test system: sedge, umbrella (small-flower umbrella sedge, Cyperus difformis); test: Test B flooded paddy test; conditions: Cyperus difformis, Flood, 250 g ai/ha; scale of 0 to 100 where 0 is no effect and 100 is complete control; read-out: Sedge, Umbrella plant response rating
Outline: as §2

Compound | pest or weed control at 125 g/ha [1] | pest or weed control at 125 g/ha (Kochia (Kochia scoparia)) | pest or weed control at 125 g/ha [2] | pest or weed control at 125 g/ha [3] | Corn plant response rating (crop injury, 0 = no effect, 100 = complete kill) at 125 g/ha (corn (Zea mays)) | pest or weed control at 125 g/ha [4] | pest or weed control at 125 g/ha [5] | pest or weed control at 125 g/ha [6] | pest or weed control at 125 g/ha [7] | plant injury at 125 g/ha [8] | pest or weed control at 250 g/ha [9] | pest or weed control at 250 g/ha [10] | pest or weed control at 250 g/ha (rice (Oryra sativa)) | pest or weed control at 250 g/ha [11]
C=CCN1C[C@H](c2ccc(OC)c(F)c2)[C@@H](C(=O)Nc2cccc(F)c2F)C1=O [Compound 722] | 0% | 0% | 20% | 0% | 0% | 0% | 0% | 0% | 0% | 0% | 0% | 0% | 0% | 0%
C=CCN1C[C@H](c2ccc(OC)c(F)c2)[C@@H](C(=O)Nc2ccccc2S(C)(=O)=O)C1=O [Compound 724] | 0% | 0% | 0% | 0% | 0% | 0% | 0% | 0% | 0% | 0% | 0% | 0% | 0% | 0%
Cc1cc([C@H]2CNC(=O)[C@@H]2C(=O)Nc2ccc(F)cc2F)ccc1Br [Compound 725] | 20% | 0% | 70% | 0% | 0% | 0% | 0% | 0% | 0% | 0% | 0% | 100% | 0% | 0%
CN1C[C@H](c2ccc(C(F)(F)F)cc2)[C@@H](C(=O)Nc2ccccc2C(F)(F)F)C1=O [Compound 726] | 50% | 30% | 90% | 50% | 60% | 90% | 50% | 30% | 40% | 30% | 55% | 100% | 0% | 0%
Cc1ccc([C@H]2CNC(=O)[C@@H]2C(=O)Nc2cccc(F)c2F)s1 [Compound 729] | 0% | 0% | 0% | 0% | 0% | 0% | 0% | 0% | 0% | 0% | 60% | 100% | 0% | 0%
CSc1ccccc1NC(=O)[C@H]1C(=O)N(C)C[C@@H]1c1ccc(C)c(C)c1 [Compound 733] | 20% | 0% | 90% | 0% | 0% | 80% | 0% | 0% | 20% | 20% | 20% | 60% | 0% | 0%
CSc1ccccc1NC(=O)[C@H]1C(=O)N(C)C[C@@H]1c1cc(F)cc(F)c1 [Compound 738] | 50% | 20% | 80% | 0% | 20% | 70% | 20% | 0% | 0% | 0% | 40% | 100% | 0% | 0%
CN1C[C@H](c2cc(F)cc(F)c2)[C@@H](C(=O)Nc2ccccc2S(C)(=O)=O)C1=O [Compound 739] | 50% | 30% | 90% | 0% | 20% | 90% | 20% | 30% | 20% | 0% | 60% | 100% | 0% | 0%
CN1C[C@H](c2ccc3c(c2)CCC3)[C@@H](C(=O)Nc2ccccc2F)C1=O [Compound 742] | 50% | 30% | 90% | 40% | 70% | 90% | 0% | 20% | 60% | 60% | 60% | 100% | 0% | 0%
CN1C[C@H](c2ccc3c(c2)CCC3)[C@@H](C(=O)Nc2cccc(F)c2F)C1=O [Compound 743] | 50% | 30% | 90% | 30% | 60% | 90% | 0% | 0% | 40% | 50% | 65% | 95% | 20% | 0%
CN1C[C@H](c2ccc3c(c2)CCC3)[C@@H](C(=O)Nc2ccccc2S(C)(=O)=O)C1=O [Compound 744] | 30% | 30% | 60% | 20% | 40% | 80% | 0% | 20% | 30% | 50% | 60% | 85% | 0% | 0%

Source: patent US12077503B2, “Substituted cyclic amides and their use as herbicides” (FMC CORPORATION, priority 2015, dated 2024)
